We go through one molecule from patent US20190358181A1, “METHODS FOR AUTISM SPECTRUM DISORDER PHARMACOTHERAPY” (priority 2017, published 2019).

Type in all cases: in vivo, human
For experiment [1], the system named is males with ASD. Put plainly: Expressive One Word Picture Vocabulary Test (EOWPVT), SAT-1 trial. As for the experimental part:
(§1) Two observational examinations were performed by a clinician at 3 time points: baseline (56±8 days; mean±SEM; before the infusion), 2-days post-infusion, and 6-weeks post-infusion. The two examiner-based metrics were the Autism Diagnostic Observation Schedule, 2nd edition (ADOS-2) with video and audio files recorded on 3 cameras, and the Expressive One Word Picture Vocabulary Testing (EOWPVT). Both of these observational metrics were administered by a trained and certified examiner using approved test materials. Three standardized questionnaires were completed by parents at 3 time points: baseline, 7-days post-infusion, and 6-weeks post-infusion. The three standardized questionnaires completed by parents were the 58-question Aberrant Behavior Checklist (ABC), the 75-item Autism Treatment Evaluation Checklist (ATEC), and the 33-item repetitive behavior questionnaire (RBQ). Parents were asked to complete these three instruments with reference to how their child behaved in the previous 7 days. […]
(§2) Behavioral and neurological effects of treatment were assessed primarily by the examiner-based ADOS-2 protocol scores and standardized vocabulary testing (Expressive One Word Picture Vocabulary Test, EOWPVT), with secondary evaluation via parent-based assessments (Aberrant Behavior Checklist (ABC) scores, Autism Treatment Evaluation Checklist (ATEC) scores, Clinical Global Impression of Improvement (CGI) scores, and Repetitive Behavior Questionnaire (RBQ) scores). […] Examiner-based outcomes (ADOS and EOWPVT) were assessed at 2-days and 6-weeks after the infusion. Parent-based outcomes (ABC, ATEC, CGI, and RBQ) were assessed at 7-days and 6-weeks after the infusion. […]
Each child was used as their own control to examine before and after treatment effects from Example 1 in a paired t-test design for the analysis of the ADOS, EOWPVT, ABC, ATEC, RBQ (FIGS. 4-11 show individual analyses), and blood and urine safety data (FIGS. 2 and 3 show individual analyses). […] Categorical data, such as the presence or absence of adverse events or historical symptoms was analyzed by Fisher's exact test. […]

The subject of experiment [2] is males with ASD. Description: Aberrant Behavior Checklist (ABC), parent questionnaire, SAT-1 trial. The following applies: ABC Stereotypy. On the procedure:
as §1, with “days. At the end of the six weeks, we included a 24-question Clinical Global Impression (CGI) questionnaire (FIG. 16). In addition, parents were asked to list the 3 top behaviors or symptoms that they observed to be most changed over the previous 6-weeks. To minimize the misinterpretation of natural day-to-day variations in symptoms, parents were asked to mark a symptom as changed in the 6-week CGI only if it had lasted for at least 1 week.” for “days.”
as §2
Each child was used as their own control to examine before and after treatment effects from Example 1 in a paired t-test design for the analysis of the ADOS, EOWPVT, ABC, ATEC, RBQ (FIGS. 4-11 show individual analyses), and blood and urine safety data (FIGS. 2 and 3 show individual analyses). […] Categorical data, such as the presence or absence of adverse events or historical symptoms was analyzed by Fisher's exact test. […] Cohen's d—calculated as the mean difference of the paired, within-subject scores before and after treatment, divided by the standard deviation of the differences—was used as an estimate of effect size.

The subject of experiment [3] is males with ASD. Description: Clinical Global Impression (CGI) 24-question instrument, SAT-1 trial. The following applies: for Difference from baseline (mean ± sd) / d (Cohen's d): 45 days after treatment. On the procedure: Two observational examinations were performed by a clinician at 3 time points: baseline (56±8 days; mean±SEM; before the infusion), 2-days post-infusion, and 6-weeks post-infusion. The two examiner-based metrics were the Autism Diagnostic Observation Schedule, 2nd edition (ADOS-2) with video and audio files recorded on 3 cameras, and the Expressive One Word Picture Vocabulary Testing (EOWPVT). Both of these observational metrics were administered by a trained and certified examiner using approved test materials. Three standardized questionnaires were completed by parents at 3 time points: baseline, 7-days post-infusion, and 6-weeks post-infusion. The three standardized questionnaires completed by parents were the 58-question Aberrant Behavior Checklist (ABC), the 75-item Autism Treatment Evaluation Checklist (ATEC), and the 33-item repetitive behavior questionnaire (RBQ). Parents were asked to complete these three instruments with reference to how their child behaved in the previous 7 days. At the end of the six weeks, we included a 24-question Clinical Global Impression (CGI) questionnaire (FIG. 16). In addition, parents were asked to list the 3 top behaviors or symptoms that they observed to be most changed over the previous 6-weeks. To minimize the misinterpretation of natural day-to-day variations in symptoms, parents were asked to mark a symptom as changed in the 6-week CGI only if it had lasted for at least 1 week.
We developed a 24-question Clinical Global Impression (CGI) instrument designed to assess the core symptoms of autism spectrum disorders and some of the most common comorbid features (FIG. 16). The CGI instrument scoring system was the traditional 7-point, CGI-Improvement scale. See, for e.g. Busner and Targum. Psychiatry. 2007(4):28-37. In this scale, the historian gives a score of 0 if the symptom “was never a problem”, a 1 for “very much improved”, a 4 for “no change”, and a 7 for “very much worse”. In addition to the 24 structured questions, we asked the parents to write in the top 3 symptoms or behaviors that were most changed over the 6 weeks since the suramin infusion. This hybrid design of structured and open-ended responses permitted us to capture a large number of clinical outcomes associated with single dose suramin treatment.
For the test dose, 50 mg of suramin hexasodium (Bayer Pharmaceuticals, Inc.) in 5 mL of saline (experimental arm, 5 patients), or 5 mL of saline only (control arm, 5 patients) were given by slow intravenous (IV) push over 3 minutes, followed by a 10 mL flush of saline. One hour after the test dose, vital signs were repeated and a single infusion of either suramin (20 mg/kg, minus the 50 mg test dose, in 50 mL, up to a maximum of 1 gram) or saline (50 mL IV) was given over 30 minutes, followed by a 10 mL flush of saline.
Behavioral and neurological effects of treatment were assessed primarily by the examiner-based ADOS-2 protocol scores and standardized vocabulary testing (Expressive One Word Picture Vocabulary Test, EOWPVT), with secondary evaluation via parent-based assessments (Aberrant Behavior Checklist (ABC) scores, Autism Treatment Evaluation Checklist (ATEC) scores, Clinical Global Impression of Improvement (CGI) scores, and Repetitive Behavior Questionnaire (RBQ) scores). See General Methods for information related to behavioral test administration. Prior to the study, diagnosis of each of the enrolled participants was confirmed by ADOS-2 comparison scores of ≥7, and non-verbal IQ was tested by Leiter-3 examination. Examiner-based outcomes (ADOS and EOWPVT) were assessed at 2-days and 6-weeks after the infusion. Parent-based outcomes (ABC, ATEC, CGI, and RBQ) were assessed at 7-days and 6-weeks after the infusion. To minimize the effects of natural behavioral variability, the parents were instructed to mark a behavior as changed only if it was persistently changed for at least 1 week. […]

[4] abbreviates: EOWPVT Vocabulary, 45 days after treatment.

On to `Cc1ccc(C(=O)Nc2ccc(S(=O)(=O)O)c3cc(S(=O)(=O)O)cc(S(=O)(=O)O)c23)cc1NC(=O)c1cccc(NC(=O)Nc2cccc(C(=O)Nc3cc(C(=O)Nc4ccc(S(=O)(=O)O)c5cc(S(=O)(=O)O)cc(S(=O)(=O)O)c45)ccc3C)c2)c1` [Suramin, suramin], for which the “Difference from baseline (mean ± sd)” value with males with ASD [1] (setting [4]) is listed as −4.2 ± 8.3; in the experiment with males with ASD [2] (7 days after treatment), −3.6 ± 2.1; in the experiment on males with ASD [2] (45 days after treatment) it was −4.0 ± 2.3; in the experiment on males with ASD [3] (CGI E. Language (expressive language)) it was −2.0 ± 1.04; in the experiment with males with ASD [3] (CGI Overall ASD symptoms), −1.8 ± 1.04; in the experiment on males with ASD [3] (CGI Social Inter. (social interaction)) it was −2.0 ± 1.04. Moreover, the “d (Cohen's d)” value in the experiment on males with ASD [1] (setting [4]) was −0.51; in the experiment on males with ASD [2] (7 days after treatment), 1.7; in the experiment on males with ASD [2] (45 days after treatment), 1.7; in the experiment on males with ASD [3] (CGI E. Language), 1.9; in the experiment with males with ASD [3] (CGI Overall ASD symptoms), 1.7; in the experiment on males with ASD [3] (CGI Social Inter.), 1.9. In addition, the EOWPVT scores entry in the experiment on males with ASD [1] (after single 20 mg/kg IV dose) was “did not change”. Also, the “symptoms covered in the CGI that were significant” value in the experiment with males with ASD [3] (6-weeks, 24 symptoms (FIG. 10C)) is given as “Four of 24”.
